Data: ChEMBL document CHEMBL3039007, “Structure-based identification of OATP1B1/3 inhibitors” (Mol Pharmacol, 2013)

What was measured:
[1] = target: T1, Solute carrier organic anion transporter family member 1B1 (Homo sapiens, UniProt Q9Y6L6); conditions: chinese hamster, cho, 10 µM
T1 sequence (Q9Y6L6 whole entry): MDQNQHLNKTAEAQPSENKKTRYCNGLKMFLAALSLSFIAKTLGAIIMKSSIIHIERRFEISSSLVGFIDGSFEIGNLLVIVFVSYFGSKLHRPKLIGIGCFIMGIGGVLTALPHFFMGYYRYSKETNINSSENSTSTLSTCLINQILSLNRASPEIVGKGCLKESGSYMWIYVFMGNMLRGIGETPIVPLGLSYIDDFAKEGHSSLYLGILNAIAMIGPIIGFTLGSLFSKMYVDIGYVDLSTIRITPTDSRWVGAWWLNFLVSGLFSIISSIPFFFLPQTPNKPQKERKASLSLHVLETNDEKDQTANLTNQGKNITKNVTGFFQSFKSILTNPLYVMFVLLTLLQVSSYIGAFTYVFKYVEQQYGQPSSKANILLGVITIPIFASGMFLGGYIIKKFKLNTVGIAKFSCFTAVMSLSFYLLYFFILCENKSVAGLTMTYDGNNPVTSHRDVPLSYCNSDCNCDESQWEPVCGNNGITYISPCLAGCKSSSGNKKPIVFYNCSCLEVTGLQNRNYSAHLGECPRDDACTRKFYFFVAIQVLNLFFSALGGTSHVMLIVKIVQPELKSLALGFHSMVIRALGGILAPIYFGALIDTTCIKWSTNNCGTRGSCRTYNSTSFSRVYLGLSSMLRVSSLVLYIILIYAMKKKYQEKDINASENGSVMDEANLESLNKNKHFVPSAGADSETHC

[2] = target: T2, Solute carrier organic anion transporter family member 1B3 (Homo sapiens, UniProt Q9NPD5); conditions: chinese hamster, cho, 10 µM
T2 sequence (Q9NPD5 whole entry): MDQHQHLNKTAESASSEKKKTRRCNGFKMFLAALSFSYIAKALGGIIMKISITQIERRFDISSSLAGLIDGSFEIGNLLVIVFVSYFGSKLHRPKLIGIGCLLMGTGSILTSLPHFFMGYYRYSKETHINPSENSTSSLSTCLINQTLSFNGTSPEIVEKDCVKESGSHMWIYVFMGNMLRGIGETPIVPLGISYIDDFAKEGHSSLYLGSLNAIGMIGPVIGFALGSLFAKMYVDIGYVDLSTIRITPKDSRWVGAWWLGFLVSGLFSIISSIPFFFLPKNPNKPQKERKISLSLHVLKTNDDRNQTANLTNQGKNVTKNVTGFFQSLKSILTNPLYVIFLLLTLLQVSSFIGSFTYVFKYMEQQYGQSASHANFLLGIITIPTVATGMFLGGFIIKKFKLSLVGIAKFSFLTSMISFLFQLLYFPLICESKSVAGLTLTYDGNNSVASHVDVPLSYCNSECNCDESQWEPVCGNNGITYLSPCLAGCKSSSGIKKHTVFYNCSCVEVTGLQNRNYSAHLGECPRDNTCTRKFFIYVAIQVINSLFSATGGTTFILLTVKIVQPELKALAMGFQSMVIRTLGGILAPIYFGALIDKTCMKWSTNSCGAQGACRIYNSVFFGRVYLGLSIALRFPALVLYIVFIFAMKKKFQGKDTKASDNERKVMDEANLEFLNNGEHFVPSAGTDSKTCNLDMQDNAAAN

residual activity [1] | residual activity [2] | Compound
80.16% | 84.72% | C=C1CC[C@@H]2[C@](C)(CO)[C@H](O)CC[C@@]2(C)[C@@H]1C/C=C1/C(=O)OC[C@H]1O [ANDROGRAPHOLIDE]
108.3% | 111.7% | CC(C)NCC(O)c1cc(O)cc(O)c1 (configuration not stated) [METAPROTERENOL]
207.2% | 98.73% | O=C1CCc2cc(OCCCCc3nnnn3C3CCCCC3)ccc2N1 [CILOSTAZOL]
172.8% | 102.2% | CCOc1ccc(C(=O)c2ccc(OC)c(O)c2O)cc1 [2,3-DIHYDROXY-4-METHOXY-4'-ETHOXYBENZOPHENONE]
111.7% | 98.25% | CC(C)Cc1ccc(C(C)C(=O)O)cc1 (configuration not stated) [IBUPROFEN]
91.79% | 95.23% | COc1ccc2c(=O)ccoc2c1 [7-METHOXYCHROMONE]
77.22% | 94.96% | CC(=O)O[C@H]1C[C@@H](OC(C)=O)C(C)(C)[C@@H]2C[C@@H](OC(C)=O)[C@]3(C)[C@H](CC[C@@]4(C)[C@H](c5ccoc5)OC(=O)[C@H]5O[C@@]534)[C@@]12C [KHIVORIN]
92.99% | 94.69% | CC(=O)Oc1ccc(-c2cc(=O)c3c(OC(C)=O)cc(OC(C)=O)cc3o2)cc1 [APIGENIN TRIACETATE]
99.12% | 95.67% | C[C@@H]1CC[C@H]2[C@](C)(CO)[C@@H](O)CC[C@]2(C)[C@@]12CC[C@@](CO)(CCO)O2 [LAGOCHILINE]
75.75% | 88.86% | Nc1ccc(C(=O)[O-])c(O)c1.O.O.[Na+] [AMINOSALICYLATE SODIUM]
82.72% | 81.19% | CN(C)CCCN1c2ccccc2Sc2ccccc21.Cl [PROMAZINE HYDROCHLORIDE]
108.7% | 92.79% | CCOC(=O)CCCCCCCCCCCCC1C=CCC1 (configuration not stated) [CHAULMOOGRIC ACID, ETHYL ESTER]
110.4% | 96.2% | C=C(C)C1(O)OC(=O)C=C1OC (configuration not stated) [PENICILLIC ACID]
108.5% | 100.7% | CC1(C)S[C@@H]2[C@H](NC(=O)C(C(=O)[O-])c3ccccc3)C(=O)N2[C@H]1C(=O)[O-].[Na+].[Na+] (some centres not stated) [CARBENICILLIN DISODIUM]
99.74% | 156% | N=C(N)c1ccc(OCCCCCOc2ccc(C(=N)N)cc2)cc1.O=S(=O)(O)CCO
101.3% | 93.09% | CC(=O)/N=c1/sc(S(N)(=O)=O)nn1C [METHAZOLAMIDE]
97.76% | 99.55% | COC(=O)C(N)CS.Cl (configuration not stated) [MECYSTEINE HYDROCHLORIDE]

residual activity [1] | residual activity [2] | Compound
93.9% | 92.39% | Nc1cc(N2CCCCC2)nc(N)[n+]1[O-] [MINOXIDIL]
157.6% | 116.7% | Oc1ccc(/C=C/c2cc(O)cc(O)c2)cc1 [RESVERATROL]
114.1% | 246.6% | C=CC(C1=CC(=O)C(OC)=CC1=O)c1ccc(O)cc1 (configuration not stated) [DALBERGIONE, 4-METHOXY-4'-HYDROXY-]
74.56% | 83.66% | COc1ccc(-c2coc3cc(O)ccc3c2=O)c(OC)c1 [2'-METHOXYFORMONETIN]
69.97% | 115.2% | CCC[C@@H]1C[C@@H](C(=O)N[C@@H]([C@H]2O[C@H](SC)[C@H](O)[C@@H](O)[C@H]2O)[C@H](C)Cl)N(C)C1.Cl [CLINDAMYCIN HYDROCHLORIDE]
158.8% | 111.4% | Cc1cc(N)c2ccccc2[n+]1CCCCCCCCCC[n+]1c(C)cc(N)c2ccccc21.[Cl-].[Cl-] [DEQUALINIUM CHLORIDE]
107.1% | 99.03% | CC(=O)Nc1ccc(OCC(O)CNC(C)C)cc1 (configuration not stated) [PRACTOLOL]
75.93% | 102.1% | CCCCC(CC)CN1CN(CC(CC)CCCC)CC(C)(N)C1 (configuration not stated) [HEXETIDINE]
96.74% | 76.07% | Cl.Cl.Fc1ccc([C@@H]2CCNC[C@H]2COc2ccc3c(c2)OCO3)cc1.Fc1ccc([C@@H]2CCNC[C@H]2COc2ccc3c(c2)OCO3)cc1.O [PAROXETINE HYDROCHLORIDE]
21.61% | 121.9% | Cc1c(C(=O)O)c(O)cc2c1C(=O)c1c(O)c([C@@H]3O[C@H](CO)[C@@H](O)[C@H](O)[C@H]3O)c(O)c(O)c1C2=O [CARMINIC ACID]
61.91% | 88.3% | CCCCNc1ccc(C(=O)OCCN(C)C)cc1.Cl [TETRACAINE HYDROCHLORIDE]
77.55% | 73.94% | C[N+]1(C)[C@@H]2CC[C@H]1C[C@@H](OC(=O)C(O)c1ccccc1)C2.[Br-] (some centres not stated) [HOMATROPINE METHYLBROMIDE]
102.1% | 99.97% | Nc1nc2ncc(C(=O)O)nc2c(=O)[nH]1 [PTERIN-6-CARBOXYLIC ACID]
77.71% | 114.8% | CC(C)NC(=N)NC(=N)Nc1ccc(Cl)cc1.Cl [PROGUANIL HYDROCHLORIDE]
72.81% | 76.09% | O=C(Cn1ccnc1[N+](=O)[O-])NCCO [ETANIDAZOLE]
102.1% | 96.5% | Cn1c(=O)[nH]c2nc[nH]c2c1=O [1-METHYLXANTHINE]

Compound | residual activity [1] | residual activity [2]
COc1cc2c(cc1OC)[C@H](C)NCC2 [SALSOLIDINE] | 117.3% | 93.8%
N[C@H](C(=O)O)[C@@H]1CC(Cl)=NO1 [ACIVICIN] | 137.7% | 113.3%
C/C=C(/C)C(=O)O[C@H]1CC[C@@]2(C)[C@@H]3CC[C@H]4[C@]5(O)C[C@H](O)[C@@]6(O)[C@@H](CN7C[C@@H](C)CC[C@H]7[C@@]6(C)O)[C@]5(O)C[C@@]42O[C@]13O [CEVADINE] | 78.54% | 84.71%
CC(C)OC(=O)Nc1cccc(Cl)c1 [CHLORPROPHAM] | 104.8% | 107%
C[C@]12CC[C@H](O)C[C@H]1CC[C@@H]1[C@@H]2[C@H](O)C[C@]2(C)[C@@H](C3=CC(=O)OC3)CC[C@]12O [SARMENTOGENIN] | 70.58% | 105.8%
CC(=O)Nc1cc([As](=O)(O)O)ccc1O [ACETARSONE] | 58.73% | 85.71%
COc1cc2c(cc1OC)C1(O)C(=O)c3ccc(O)c(C(=O)O)c3OC1CO2 (configuration not stated) [12a-HYDROXY-9-DEMETHYLMUNDUSERONE-8-CARBOXYLIC ACID] | 215.8% | 86.59%
COc1ccc2c(c1)CC[C@@H]1[C@@H]2CC[C@]2(C)[C@@H](O)CC[C@@H]12 [ESTRADIOL METHYL ETHER] | 137.4% | 110%
N#C/C(=C\c1cccc(O)c1)C(=O)O [alpha-CYANO-3-HYDROXYCINNAMIC ACID] | 102.6% | 89.69%
COc1cccc(C=O)c1OC | 107.3% | 100.4%
CCCN1C[C@H](CSC)C[C@@H]2c3cccc4[nH]cc(c34)C[C@H]21.CS(=O)(=O)O [PERGOLIDE MESYLATE] | 90.15% | 85.27%
COC(=O)COc1cc(Cl)c(Cl)cc1Cl [2,4,5-TRICHLOROPHENOXYACETIC ACID, METHYL ESTER] | 98.01% | 116.4%
CC[C@@]1(O)C[C@H](O[C@H]2C[C@H](N(C)C)[C@H](O[C@H]3C[C@H](O)[C@H](O[C@H]4CCC(=O)[C@H](C)O4)[C@H](C)O3)[C@H](C)O2)c2c(cc3c(c2O)C(=O)c2c(O)cccc2C3=O)[C@H]1C(=O)OC [ACLARUBICIN] | 95.52% | 107.1%
